This passage reports IC50 and Activity results from ChEMBL document CHEMBL1150899, “Novel quinone methides from Salacia kraussii with in vitro antimalarial activity” (J Nat Prod, 1998).

In brackets after ≈: the same amount, converted by molar mass.

In data set [1] the test system is Plasmodium falciparum. Kind of data set: Antiplasmodial activity against chloroquine-sensitive Plasmodium falciparum NF54 infected human erythrocytes as [3H]hypoxanthine uptake. The data set is classed as functional, organism-based.
Data set [2] deals with Plasmodium falciparum. Kind of data set: Antiplasmodial activity against chloroquine-resistant Plasmodium falciparum K1 infected human erythrocytes as [3H]hypoxanthine uptake. It is filed as functional, organism-based.
For another data set, the system named is HT-29. Kind of data set: Cytotoxicity against human HT-29 cells after 72 hrs by Alamar blue assay. The data set is classed as functional, cell-based. The following applies: HT-29, 72 h.
For the next data set, the system named is Mus musculus. Kind of data set: Toxicity against Plasmodium berghei-infected mice (Mus musculus) assessed as mortality at 10 mg/kg, subcutaneously after 1 day. The data set is classed as organism-based. Also noted: dose 10 mg/kg, route subcutaneous. The following applies: in vivo, sc, 24 h.

Regarding `C=C1CC[C@]2(C=O)CC[C@]3(C)C4=CC=C5C(=CC(=O)C(O)=C5C)[C@]4(C)CC[C@@]3(C)[C@@H]2C1`, the IC50 in the data set on Plasmodium falciparum [1] turned out to be 0.0799 µg/mL (≈ 0.191 µM); with Plasmodium falciparum [2] it was 0.094 µg/mL (≈ 0.225 µM).

Take `C=C1CC[C@]2(C(=O)OC)CC[C@]3(C)C4=CC=C5C(=CC(=O)C(O)=C5C)[C@]4(C)CC[C@@]3(C)[C@@H]2C1`: the values for the IC50 with Plasmodium falciparum [1], in the data set with Plasmodium falciparum [2] and in the data set on HT-29 were 0.0371 µg/mL (≈ 0.0827 µM), 0.0276 µg/mL (≈ 0.0615 µM) and 2.38 µg/mL (≈ 5.31 µM), respectively. Also, the Activity entry in the data set on Mus musculus is given as “Toxic”.

For the compound `C=C1CC[C@]2(CO)CC[C@]3(C)C4=CC=C5C(=CC(=O)C(O)=C5C)[C@]4(C)CC[C@@]3(C)[C@@H]2C1`, the IC50 in the data set on Plasmodium falciparum [1] worked out at 0.14 µg/mL (≈ 0.333 µM); in the data set on Plasmodium falciparum [2] it was 0.114 µg/mL (≈ 0.272 µM); in the data set on HT-29, 6.06 µg/mL (≈ 14.4 µM).

With `CC1=C(O)C(=O)C=C2C1=CC=C1[C@@]2(C)CC[C@@]2(C)[C@@H]3C[C@](C)(C(=O)O)CC[C@]3(C)CC[C@]12C` [CELASTROL], the IC50 was determined as 0.254 µg/mL (≈ 0.564 µM) in the data set with Plasmodium falciparum [1], 0.181 µg/mL (≈ 0.401 µM) in the data set on Plasmodium falciparum [2] and 1.3 µg/mL (≈ 2.88 µM) with HT-29.

`CCN(CC)CCCC(C)Nc1ccnc2cc(Cl)ccc12` (centres undefined) [CHLOROQUINE]: it took 58 µg/mL (≈ 181 µM) to reach half-maximal inhibition with HT-29 (IC50).

With `CC1=C(O)C(=O)C=C2C1=CC=C1[C@@]2(C)CC[C@@]2(C)[C@@H]3C[C@H](CO)CC[C@]3(C)CC[C@]12C` [ISOIGUESTEROL], the IC50 with Plasmodium falciparum [1] is 0.0541 µg/mL (≈ 0.128 µM); with Plasmodium falciparum [2], 0.0229 µg/mL (≈ 0.0542 µM); in the data set with HT-29, 2.43 µg/mL (≈ 5.75 µM).

On to `COC(=O)[C@]1(C)CC[C@]2(C)CC[C@]3(C)C4=CC=C5C(=CC(=O)C(O)=C5C)[C@]4(C)CC[C@@]3(C)[C@@H]2C1` [PRISTIMERIN], for which the IC50 in the data set on Plasmodium falciparum [1] came to 0.271 µg/mL (≈ 0.583 µM); in the data set on Plasmodium falciparum [2] it was 0.19 µg/mL (≈ 0.41 µM); in the data set with HT-29, 4.6 µg/mL (≈ 9.9 µM).

What is called IC50 is the concentration at which inhibition is half-maximal. Lower therefore signals inhibition by little substance.
